According to patent US12187663B2, “Thyromimetics with a biphenylmethane scaffold and their use” (INTERNATIONAL SOCIETY FOR DRUG DEVELOPMENT S.R.L., priority 2019, dated 2025):

What was measured:
ACC = test: Western blot of phosphorylated ACC in HepG2 cells; type: cell-based, Human; details: twenty-four hours of treatment
Method: Human hepatocellular carcinoma cells (HepG2), obtained from American Type Culture Collection (Manassas, Va., USA), were cultured in low-glucose (LG) Dulbecco's modified Eagle's medium (DMEM) ([…], Invitrogen, Carlsbad, Calif., USA) or high-glucose (HG) DMEM ([…]) supplemented with 10% fetal bovine serum (FBS) and […] penicillin/streptomycin in an atmosphere of 5% CO2 at 37° C. These cells were then treated with tested compounds at various concentrations for 24 h. After treatments, cells were lysed in a buffer containing 20 mM Tris-HCl (pH 7.5), 0.9% NaCl, 0.2% Triton X-100, and 1% of the protease inhibitor cocktail (Sigma-Aldrich, Milan, Italy) and then stored at −80° C. for further western blot analysis. All the analyses were conducted on cells between the third and the sixth passage.
Proteins (20-30 μg) were separated on CriterionTGX™ gel (4-20%) and transferred on Immuno-PVDF membrane (Biorad, Milan, Italy) for 1 h. Blots were incubated with the primary antibody at 4° C. overnight. All the polyclonal antibodies for the protein of interest were purchased from Santa Cruz Biotechnology, Inc., Dallas, TX, USA. Then, blots were washed 3 times for 10 minutes with 1×TBS, 0.1% Tween® 20 and incubated for 1 h with secondary antibody (peroxidase-coupled anti rabbit in 1×TBS, 0.1% Tween®20). […] Band densitometric analysis was performed using Image Lab Software (Biorad, Milan, Italy).
The liver is a major organ responsible for most functions of cellular metabolism and a mediator between dietary and endogenous sources of energy for extrahepatic tissues. In this context, AMPK constitutes an intrahepatic energy sensor regulating physiological energy dynamics by limiting anabolism and stimulating catabolism, thus increasing ATP availability. Once activated, AMPK phosphorylates its downstream substrates to reduce ATP-consuming anabolic pathways, including cholesterol, fatty acid, and triacylglycerol synthesis, and increases ATP-generating catabolic pathways, including fatty acid oxidation and lipolysis. […]

Solubility in water = type: physicochemical
[1] = Panel of early-toxicity assays (in vitro ADME-TOX profiling); details: 10 μM of each compound
Method: FIG. 5. ADME-TOX profiling In order to assess the ADME-TOX profile of new synthetized compounds a full panel of in vitro assays was performed. Cytotoxic effects were evaluated on 4 different cell lines (U2-OS, HEK293, hTERT, MCF-7) at 24 h and 48 h after treatment with new compounds. Cardiac toxicity was assessed evaluating the inhibition effect of compounds on the hERG ion-channel, an important anti-target involved in heart functionalities. Metabolic interference was evaluated testing inhibitory effects of new compounds on four isoforms of CYP450 (CYP2C9, CYP2C19, CYP2D6, CYP3A4). In order to assess off-target liabilities, the inhibitory effects have been assessed against several well-known off-targets. […] The data were collected and analyzed in the form of a traffic-light system using criteria shown below.
Test compounds (20 nL of 10 mM top concentration in 100% v/v DMSO), positive control (PC; Valinomycin with final concentration of 10 μM and 0.1% v/v DMSO) and NC (final 0.1% v/v DMSO) were added in an empty polystyrene 384-well cell culture microtiter plate using the Echo 550 Liquid Handler and stored at room temperature before cell's seeding. […] At 24 h and 48 h post-treatment, 20 μL/well of CTG detection mix were added, and plates were read using an EnVision Multilabel 2103 Reader after a 10-min incubation in the dark. […]

SMILES | ACC phosphorylation (p-ACC) (ACC) | solubility in water (Solubility in water) | early-toxicity / liability profile (% inhibition heat map) [1]
Cc1cc(OCC(=O)O)cc(C)c1Cc1ccc(N)c(C(C)C)c1 [IS25, 2-(4-(4-amino-3-isopropylbenzyl)-3,5-dimethylphenoxy)acetic acid] | significant ACC phosphorylation | very soluble in water | safer profile
CC(=O)Nc1ccc(Cc2c(C)cc(OCC(=O)O)cc2C)cc1C(C)C [TG68, 2-(4-(4-acetamido-3-isopropylbenzyl)-3,5-dimethylphenoxy)acetic acid] | significant ACC phosphorylation | very soluble in water | safer profile
